The values below come from patent US9682953B2, “Amide compounds, compositions and applications thereof” (Advinus Therapeutics Limited, priority 2011, dated 2017).

One may read the IC50 as the midpoint of a concentration-inhibition curve. In general, inhibition refers to how much of the control response was suppressed.

Where two headings read alike, the source gives them in different places.

Assay [1] has as its target rat Fatty Acid Amide Hydrolase (FAAH) (Rattus norvegicus (Rat), UniProt P97612). In words: FAAH in vitro fluorescence assay (AAMCA hydrolysis), rat enzyme. It counts as biochemical. Conditions: for inhibition at 0.1 µM: read-out: rFAAH % inhibition at 100 nM, 100 nM (tier I). In short, it runs like this: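 Rat FAAH, E. coli-expressed with groEL-groES chaperone, used as enriched membrane extract with 10 μM AAMCA in 50 mM HEPES, 1 mM EDTA, 0.1% BSA, pH 7.4 (1% DMSO final).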

For assay [2], the target named is human Fatty Acid Amide Hydrolase (FAAH) (Homo sapiens (Human), UniProt O00519). Description: biochemical. As to conditions: for inhibition at 0.1 µM: read-out: hFAAH % inhibition at 100 nM, 100 nM (tier I).
Chain of human Fatty Acid Amide Hydrolase (FAAH) (O00519 30-579): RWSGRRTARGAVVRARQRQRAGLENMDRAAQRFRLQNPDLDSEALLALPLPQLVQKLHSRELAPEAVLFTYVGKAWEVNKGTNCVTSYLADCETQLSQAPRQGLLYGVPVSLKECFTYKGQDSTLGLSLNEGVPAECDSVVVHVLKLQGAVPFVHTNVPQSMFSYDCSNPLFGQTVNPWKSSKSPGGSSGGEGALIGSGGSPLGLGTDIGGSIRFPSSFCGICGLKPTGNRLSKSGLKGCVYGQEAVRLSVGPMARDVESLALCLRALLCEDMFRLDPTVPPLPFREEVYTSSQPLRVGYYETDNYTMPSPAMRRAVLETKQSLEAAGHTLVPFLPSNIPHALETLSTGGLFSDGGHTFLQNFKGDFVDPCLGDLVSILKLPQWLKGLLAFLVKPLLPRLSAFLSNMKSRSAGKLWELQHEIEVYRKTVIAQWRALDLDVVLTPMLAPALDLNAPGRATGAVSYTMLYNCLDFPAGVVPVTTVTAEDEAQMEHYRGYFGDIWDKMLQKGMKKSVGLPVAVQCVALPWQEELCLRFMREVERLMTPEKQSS
Setting [3] is: human FAAH, read-out: hFAAH IC50.

Chain of rat Fatty Acid Amide Hydrolase (FAAH) (P97612 30-579): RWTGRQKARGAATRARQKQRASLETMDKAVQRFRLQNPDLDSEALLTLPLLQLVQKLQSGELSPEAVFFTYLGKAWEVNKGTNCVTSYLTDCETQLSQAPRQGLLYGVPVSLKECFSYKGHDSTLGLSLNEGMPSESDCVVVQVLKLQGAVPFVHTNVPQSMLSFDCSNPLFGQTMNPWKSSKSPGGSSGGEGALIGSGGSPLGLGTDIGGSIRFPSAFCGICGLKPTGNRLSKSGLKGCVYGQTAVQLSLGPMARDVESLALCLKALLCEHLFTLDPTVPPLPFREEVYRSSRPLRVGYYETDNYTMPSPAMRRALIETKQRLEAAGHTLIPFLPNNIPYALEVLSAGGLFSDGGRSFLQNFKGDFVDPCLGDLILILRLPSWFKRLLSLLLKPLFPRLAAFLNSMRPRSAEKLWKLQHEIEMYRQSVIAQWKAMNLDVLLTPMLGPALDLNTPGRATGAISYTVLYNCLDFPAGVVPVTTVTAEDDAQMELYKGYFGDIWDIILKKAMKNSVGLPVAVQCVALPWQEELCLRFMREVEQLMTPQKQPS

Regarding `Cc1cc(C(=O)NC2CCC(=Cc3cccc(Oc4ccc(Cl)c(C)n4)c3)CC2)cnc1N` (centres unmarked) [Example 2.E-25, 6-Amino-N-[4-[[3-[(5-chloro-6-methyl-2-pyridyl)oxy]phenyl]methylene]cyclohexyl]-5-methyl-pyridine-3-carboxamide], the 50% inhibitory concentration (IC50) in assay [1] (rat FAAH, read-out: rFAAH IC50) is 0.032 µM; in assay [2] (setting [3]) it was 0.007 µM.

Turning to `Cc1nc(Oc2cccc(C=C3CCC(NC(=O)c4cnc(N)nc4)CC3)c2)ccc1Cl` (centres unmarked) [Example 2.E-27, 2-Amino-N-[4-[[3-[(5-chloro-6-methyl-2-pyridyl)oxy]phenyl]methylene]cyclohexyl]pyrimidine-5-carboxamide], the concentration for half-maximal inhibition (IC50) in assay [1] (rat FAAH, read-out: rFAAH IC50) came to 0.017 µM; in assay [2] (setting [3]), 0.001 µM.

Regarding `N#Cc1nc(Oc2cccc(C=C3CCC(NC(=O)c4ccc(N)nc4)CC3)c2)ccc1C(F)(F)F` (centres unmarked) [Example 2.E-28, 6-Amino-N-[4-[[3-[[6-cyano-5-(trifluoromethyl)-2-pyridyl]oxy]phenyl]methylene]cyclohexyl]pyridine-3-carboxamide], the IC50 in assay [1] (rat FAAH, read-out: rFAAH IC50) came out at 0.075 µM; in assay [2] (setting [3]), 0.006 µM.

As for `Nc1ncc(C(=O)NC2CCC(=Cc3cccc(Oc4ccc(C(F)(F)F)cn4)c3)CC2)cc1Cl` (centres unmarked) [Example 4.A-3, 6-Amino-5-chloro-N-[4-[[3-[[5-(trifluoromethyl)-2-pyridyl]oxy]phenyl]methylene]cyclohexyl]pyridine-3-carboxamide], the IC50 in assay [1] amounted to 0.016 µM; in assay [2] (hFAAH IC50) it was 0.003 µM.

On to `CN(C)c1ccc(C(=O)NC2CCC(=Cc3cccc(Oc4ccc(C(F)(F)F)cn4)c3)CC2)cn1` (centres unmarked) [Example 5.1, 6-(Dimethylamino)-N-[4-[[3-[[5-(trifluoromethyl)-2-pyridyl]oxy]-phenyl]methylene]cyclohexyl]pyridine-3-carboxamide], for which the IC50 in assay [1] (rat FAAH, read-out: rFAAH IC50) came out at 0.013 µM; in assay [2] (read-out: hFAAH IC50), 0.007 µM.

For `CNc1ccc(C(=O)NC2CCC(=Cc3cccc(Oc4ccc(C(F)(F)F)cn4)c3)CC2)cn1` (centres unmarked) [Example 5.A-1, 6-(Methylamino)-N-[4-[[3-[[5-(trifluoromethyl)-2-pyridyl]oxy]phenyl]methylene]cyclohexyl]pyridine-3-carboxamide], the IC50 in assay [1] (rat FAAH, read-out: rFAAH IC50) came to 0.011 µM; in assay [2] (read-out: hFAAH IC50) it was 0.004 µM.

Consider `O=C(NC1CCC(=Cc2cccc(Oc3ccc(C(F)(F)F)cn3)c2)CC1)c1ccc(N2CCCC2)nc1` (centres unmarked) [Example 5.A-2, 6-Pyrrolidin-1-yl-N-[4-[[3-[[5-(trifluoromethyl)-2-pyridyl]oxy]phenyl]methylene]cyclohexyl]pyridine-3-carboxamide], for which, in assay [1] (rat FAAH, read-out: rFAAH IC50), the IC50 turned out to be 0.028 µM. Moreover, the inhibition at 0.1 µM in assay [2] (human FAAH) is 54%.

`O=C(NC1CCC(=Cc2cccc(Oc3ccc(C(F)(F)F)cn3)c2)CC1)c1ccc(-n2cccn2)nc1` (centres unmarked) [Example 5.A-6, 6-Pyrazol-1-yl-N-[4-[[3-[[5-(trifluoromemyl)-2-pyridyl]oxy]phenyl]methylene]cyclohexyl]pyridine-3-carboxamide]: the IC50 in assay [1] (rat FAAH, read-out: rFAAH IC50) was 0.007 µM; in assay [2] (read-out: hFAAH IC50), 0.007 µM.

Turning to `CCN(C)c1ccc(C(=O)NC2CCC(=Cc3cccc(Oc4ccc(C(F)(F)F)cn4)c3)CC2)cn1` (centres unmarked) [Example 5.A-7, 6-[Ethyl(methyl)amino]-N-[4-[[3-[[5-(trifluoromethyl)-2-pyridyl]oxy]phenyl]methylene]cyclohexyl]pyridine-3-carboxamide], the IC50 amounted to 0.015 µM in assay [1] (rat FAAH, read-out: rFAAH IC50) and 0.128 µM in assay [2] (setting [3]).

Regarding `CC(CO)Nc1ccc(C(=O)NC2CCC(=Cc3cccc(Oc4ccc(C(F)(F)F)cn4)c3)CC2)cn1` (centres unmarked) [Example 5.A-8, 6-[(2-Hydroxy-1-methyl-ethyl)amino]-N-[4-[[3-[[5-(trifluoromethyl)-2-pyridyl]oxy]phenyl]methylene]cyclohexyl]pyridine-3-carboxamide], the IC50 in assay [1] (rat FAAH, read-out: rFAAH IC50) amounted to 0.032 µM; in assay [2] (setting [3]), 0.016 µM.

Regarding `O=C(NC1CCC(=Cc2cccc(Oc3ccc(C(F)(F)F)cn3)c2)CC1)c1ccc(NC2CC2)nc1` (centres unmarked) [Example 5.A-10, 6-(Cyclopropylamino)-N-[4-[[3-[[5-(trifluoromethyl)-2-pyridyl]oxy]phenyl]methylene]cyclohexyl]pyridine-3-carboxamide], the IC50 stood at 0.074 µM in assay [1] (rat FAAH, read-out: rFAAH IC50) and 0.025 µM in assay [2] (setting [3]).

For the compound `CCOc1ccc(C(=O)NC2CCC(=Cc3cccc(Oc4ccc(C(F)(F)F)cn4)c3)CC2)cn1` (centres unmarked) [Example 6.1, 6-Ethoxy-N-[4-[[3-[[5-(trifluoromethyl)-2-pyridyl]oxy]phenyl]-methylene]cyclohexyl]pyridine-3-carboxamide], the IC50 in assay [1] (rat FAAH, read-out: rFAAH IC50) worked out at 0.008 µM; in assay [2] (setting [3]) it was 0.01 µM.

`O=C(O)Cn1cc(-c2ccc(C(=O)NC3CCC(=Cc4cccc(Oc5ccc(C(F)(F)F)cn5)c4)CC3)cn2)cn1` (centres unmarked) [Example 8.A-1, 2-[4-[5-[[4-[[3-[[5-(Trifluoromethyl)-2-pyridyl]oxy]phenyl]methylene]cyclohexyl]carbamoyl]-2-pyridyl]pyrazol-1-yl]acetic acid]: the inhibition at 0.1 µM in assay [1] (rat FAAH) was found to be 15%; in assay [2] (human FAAH), 72%.

For `O=C(O)c1cnn(-c2ccc(C(=O)NC3CCC(=Cc4cccc(Oc5ccc(C(F)(F)F)cn5)c4)CC3)cn2)c1` (centres unmarked) [Example 8.A-4, 1-[5-[[4-[[3-[[5-(Trifluoromethyl)-2-pyridyl]oxy]phenyl]methylene]cyclohexyl]carbamoyl]-2-pyridyl]pyrazole-4-carboxylic acid], the inhibition at 0.1 µM in assay [1] (rat FAAH) was 15%. Also, in assay [2] (hFAAH IC50), the IC50 stood at 0.027 µM.

For the compound `Nc1cc(C(=O)NC2CCC(=Cc3cccc(Oc4ccc(C(F)(F)F)cn4)c3)CC2)cnc1Cl` (centres unmarked) [Example 10.1, 5-Amino-6-chloro-N-[4-[[3-[[5-(trifluoromethyl)-2-pyridyl]oxy]-phenyl]methylene]cyclohexyl]pyridine-3-carboxamide], the half-maximal inhibitory concentration (IC50) in assay [1] worked out at 0.006 µM; in assay [2] (hFAAH IC50), 0.001 µM.

As for `O=C(NC1CCC(=Cc2cccc(Oc3ccc(C(F)(F)F)cn3)c2)CC1)c1ccc(-c2nnn[nH]2)nc1` (centres unmarked) [Example 11.1, 6-(1H-Tetrazol-5-yl)-N-[4-[[3-[[5-(trifluoromethyl)-2-pyridyl]oxy]-phenyl]methylene]cyclohexyl]pyridine-3-carboxamide], the inhibition at 0.1 µM in assay [1] (rat FAAH) came to 50%. In assay [2] (read-out: hFAAH IC50), the IC50 was 0.012 µM.
